Data reported in patent publication US20260240818A1, “METHODS FOR THE TREATMENT OF FOOD ALLERGY” (INSTITUT NATIONAL DE LA SANTÉ ET DE LA RECHERCHE MÉDICALE, priority 2023, published 2026).
Entries after “also recorded” stand apart in the source; their conditions may differ.

How the values were obtained:
peanut-sensitized mice = test: Peanut allergy mouse model: clinical score and diarrhoea after oral peanut extract challenge; format: in vivo; conditions: for clinical score / incidence of diarrhoea: FOS-enriched diet; for clinical score: average of days 1-3 of oral PE challenge; for incidence of diarrhoea: oral PE challenge
Experimental: All mice were bred and maintained on a peanut- and soy-free diet under specific pathogen-free conditions until the start of the experiment.
Pyridoxamine: pyridoxamine dihydrochloride (Sigma-Aldrich, France) is added to drinking water at 1 mg/ml throughout the experiment.
RAGE antagonist FPS-ZM1: twice weekly 100 μl IP injections of FPS-ZM1 in PBS (Sigma Aldrich, France) at 0 (control group), 0.5, or 1 mg/kg b.w. were performed throughout the experiment.
Clinical score (Table 2) was continually observed from 15 to 50 minutes after oral allergen challenge and noted for each mouse. For analysis purposes, the average clinical score of the first 3 days of challenge is calculated for each mouse.
Experimental groups were compared by One-Way ANOVA, selected groups were compared using Holm-Sidak's correction for multiple comparisons. For diarrhoea data, pairwise comparisons of survival curves were performed and analysed by Mantel-Cox log-rank test.

peanut-specific IgE = test: Peanut-specific IgE ELISA on serum from the peanut allergy model; format: in vivo, mouse; conditions: FOS-enriched diet, serum after last PE challenge
Experimental: On days 1, 7, and 21 mice were sensitized with 500 μg of peanut extract (PE) together with 2 mg of Imject alum (Thermo Fisher, France) by intraperitoneal (IP) injection (100 μl in PBS). Starting from day 35, for 7 days, mice were challenged with 30 mg of PE in NaHCO3 (0.1M) by oral gavage, and clinical score (Table 2) and occurrence of diarrhoea was registered for 1 hours after each gavage. After the last challenge, blood is collected for serum extraction. Non-allergic control animals were sham sensitized (2 mg alum but no peanut extract) but challenged like the other experimental groups. Peanut Extract (PE) was coated on ELISA plates at 5 μg/ml in 0.05 M sodium carbonate-bicarbonate buffer (Sigma-Aldrich, France) over-night at 4° C., plates were washed 3 times with PBS-0.05% Tween 20 (Sigma-Aldrich, France). […] Sample preparation: Mouse serum from blood collected 1 hour after the last oral peanut challenge was diluted 1/50 in ELISA assay buffer (1×) from the ELISA kit used. The colorimetric reaction was stopped by addition of H2SO4 (5M) and absorbance was recorded at 450 nm.

[1] = FPS-ZM1 0.5 or 1 mg/kg b.w. i.p. twice weekly
[2] = pyridoxamine 1 mg/ml in drinking water throughout

O=C(c1ccc(Cl)cc1)N(Cc1ccccc1)C1CCCCC1 [FPS-ZM1, 4-Chloro-N-cyclohexyl-N-(phenylmethyl)benzamide] was tested, and the “FOS-induced aggravating effects in a mouse model of peanut allergy” value (peanut-sensitized mice; [1]) was “eliminates; also recorded: limit”, the clinical score (peanut-sensitized mice; [1]) was “lowering” and the incidence of diarrhoea (peanut-sensitized mice; [1]) was “lowering”. For the same compound, the “allergen-specific IgE levels” value (peanut-specific IgE; [1]) was “lowering”.

In the case of Cc1ncc(CO)c(CN)c1O [pyridoxamine], the “aggravating effects of the FOS-enriched diet on peanut allergic reactions” value (peanut-sensitized mice; [2]) is reported as “eliminates; also recorded: block”, the clinical score (peanut-sensitized mice; [2]) is reported as “reduced” and the incidence of diarrhoea (peanut-sensitized mice; [2]) is reported as “reduced”. The “serum peanut-specific IgE levels” value (peanut-specific IgE; [2]) was “reduced”.
